Values of other authors as cited in patent US20080275015A1, “Formulation and Method for Treating Interstitial Cystitis and Related Bladder Conditions” (priority 2007, published 2008).

Conditions: oral prescription for interstitial cystitis; standard dosing 100 mg three times daily

pentosan polysulfate sodium [Elmiron]
cases in which treatment has been shown to be effective: 30%
